This passage reports IC50 results from BindingDB's records for doi:10.7270/Q2DB809V (Burnham Center For Chemical Genomics, 2010).

In general, IC50 refers to the point on the concentration scale where inhibition reaches its midpoint.

This test deals with Intestinal-type alkaline phosphatase (Mus musculus, UniProt P24822). Kind of test: PubChem AID 488785.
Sequence of Intestinal-type alkaline phosphatase (P24822 whole entry, looked up): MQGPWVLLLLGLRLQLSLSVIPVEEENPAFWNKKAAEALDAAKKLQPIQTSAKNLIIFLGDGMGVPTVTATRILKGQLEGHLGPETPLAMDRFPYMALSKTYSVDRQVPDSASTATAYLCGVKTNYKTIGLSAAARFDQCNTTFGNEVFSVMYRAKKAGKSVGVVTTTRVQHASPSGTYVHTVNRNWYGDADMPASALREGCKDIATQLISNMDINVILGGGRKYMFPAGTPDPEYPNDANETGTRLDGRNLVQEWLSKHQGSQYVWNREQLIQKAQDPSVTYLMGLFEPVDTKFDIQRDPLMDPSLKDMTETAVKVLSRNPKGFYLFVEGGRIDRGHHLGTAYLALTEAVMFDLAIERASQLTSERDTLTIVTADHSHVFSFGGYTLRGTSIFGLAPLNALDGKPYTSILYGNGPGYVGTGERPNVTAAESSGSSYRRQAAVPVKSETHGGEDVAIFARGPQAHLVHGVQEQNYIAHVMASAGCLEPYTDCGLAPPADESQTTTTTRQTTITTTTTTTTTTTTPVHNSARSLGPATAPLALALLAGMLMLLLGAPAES

Consider `NS(=O)(=O)c1cc(C(=O)NNC2=c3ccccc3=NC2=O)ccc1Cl` [2-chloro-5-[[(2-oxoindol-3-yl)amino]carbamoyl]benzenesulfonamide], for which the IC50 came to 42.4 µM.
`C#CCOCCOCCOCCNc1nc(N2CCN(C(=O)CCCCCCCCCCNC(=O)Cn3cc(CCCCCN)nn3)CC2)nc(N2CCN(C(=O)CCCCCCCCCCNC(=O)Cn3cc(C[C@@H](C)O)nn3)CC2)n1` [KG-TG] returned a half-maximal inhibitory concentration (IC50) of 6.31 µM.
Take `COc1cc(C=CC(=O)CC(=O)C=Cc2ccc(O)cc2)ccc1O` [demethoxycurcumin]: the IC50 came to 8.38 µM.
As for `C#CCOCCOCCOCCNc1nc(N2CCN(C(=O)CCCCCCCCCCNC(=O)[C@@H](CCSC)n3cc(CCO)nn3)CC2)nc(N2CCN(C(=O)CCCCCCCCCCNC(=O)[C@H]([C@@H](C)CC)n3cc(CCCCCN)nn3)CC2)n1` [MLS002153719], the half-inhibitory concentration (IC50) was found to be 5.89 µM. This IC50 and that of the compound before are within 1.5-fold of each other.
The compound `O=C(Nn1c(O)csc1=S)C(=O)Nn1c(O)csc1=S` [SMR000349781] came in with an IC50 of 7.75 µM.
`O=C1C=CC(/C=C/c2nc(O)c([N+](=O)[O-])c(=O)[nH]2)C=C1O` (stereo unspecified) [SMR000524347] showed an IC50 of 1.04 µM.
As to `Oc1ccc(CN=Nc2cc(N3CCCC3)nc(N3CCCC3)n2)cc1O` [(4Z)-4-[[2-(2,6-dipyrrolidin-1-ylpyrimidin-4-yl)hydrazinyl]methylidene]-2-hydroxycyclohexa-2,5-dien-1-one], the half-maximal inhibitory concentration (IC50) was 1.51 µM.
In the case of `CC1NON=C1C(=O)NN=CC1=CC(=O)C(=O)C=C1` (stereo unspecified) [4-Methyl-furazan-3-carboxylic acid (3,4-dihydroxy-benzylidene)-hydrazide] it was 9.92 µM; in that of `Cc1ccc(Cl)c2c1NC(=O)/C2=C1/NC(=S)NC1=O`, 0.206 µM; in that of `Oc1ccc(C=Nn2c(O)csc2=S)c(O)c1O` [3-[[(E)-[2,3-bis(oxidanyl)-4-oxidanylidene-cyclohexa-2,5-dien-1-ylidene]methyl]amino]-2-sulfanylidene-1,3-thiazolidin-4-one], 4.15 µM.
In turn, `Cc1ccc(/C=C2\SC(=S)N(/N=C/C3C=C([N+](=O)[O-])C=CC3=O)C2=O)o1` (stereo unspecified) [(5Z)-5-[(5-methylfuran-2-yl)methylidene]-3-[[(E)-(3-nitro-6-oxocyclohexa-2,4-dien-1-ylidene)methyl]amino]-2-sulfanylidene-1,3-thiazolidin-4-one] registered an IC50 of 61.9 µM.
Consider `Nc1nnc(CC(=O)N/N=C/C2C=C([N+](=O)[O-])C=C(Br)C2=O)s1` (stereo unspecified) [2-(5-azanyl-1,3,4-thiadiazol-2-yl)-N'-[(E)-(5-bromanyl-3-nitro-6-oxidanylidene-cyclohexa-2,4-dien-1-ylidene)methyl]ethanehydrazide], for which the concentration for half-maximal inhibition (IC50) was determined as 2.79 µM.
The compound `O=C1C=CC(C=NNC(=S)Nc2ccccc2[N+](=O)[O-])C=C1O` (stereo unspecified) [MLS000417596] gave an IC50 of 0.216 µM.
On to `COc1cc(C=Nn2c(O)csc2=S)ccc1O` [3-[[(E)-(3-methoxy-4-oxidanylidene-cyclohexa-2,5-dien-1-ylidene)methyl]amino]-2-sulfanylidene-1,3-thiazolidin-4-one], for which the IC50 stood at 2.2 µM. This IC50 is about 10-fold higher than that of the compound before.
For the compound `C#CCOCCOCCOCCNc1nc(N2CCN(C(=O)CCCCCCCCCCNC(=O)[C@@H](CCC(=O)O)n3cc(CCCCCN)nn3)CC2)nc(N2CCN(C(=O)CCCCCCCCCCNC(=O)[C@H]([C@@H](C)CC)n3cc(CCCCCN)nn3)CC2)n1` [KI-KE], it took 17.1 µM to reach half-maximal inhibition (IC50).
As to `C#CCOCCOCCOCCNc1nc(N2CCN(C(=O)CCCCCCCCCCNC(=O)[C@H]([C@@H](C)CC)n3cc(CCCCN=C(N)N)nn3)CC2)nc(N2CCN(C(=O)CCCCCCCCCCNC(=O)[C@@H]([C@H](C)O)n3cc(C)nn3)CC2)n1` [GT-RI], the IC50 amounted to 0.366 µM.
